According to ChEMBL document CHEMBL4602676, “Discovery and Development of 3-(6-Chloropyridine-3-yloxymethyl)-2-azabicyclo[3.1.0]hexane Hydrochloride (SUVN-911): A Novel, Potent, Selective, and Orally Active Neuronal Nicotinic Acetylcholine α4β2 Receptor Antagonist for the Treatment of Depression” (J Med Chem, 2020):

Experiments:
[1] = biological target: Neuronal acetylcholine receptor; alpha4/beta2 (Homo sapiens, UniProt P17787+P43681); test: Displacement of [3H]cytisine from human alpha4beta2 nAChR expressed in CHOK1 cell membrane by microbeta scintillation counting method; assay type: cell membranes, CHO-K1
[2] = biological target: Neuronal acetylcholine receptor; alpha3/beta4 (Homo sapiens, UniProt P30926+P32297); test: Displacement of [3H]epibatidine from human alpha3beta4 nAChR expressed in IMR32 cell membrane by microbeta scintillation counting method; assay type: cell membranes, IMR-32
Rattus norvegicus [3] = test: Antidepressant activity in Wistar rat assessed as immobility time at 3.0 mg/kg, po measured for 5 mins by forced swim test (reference value: 241.9 to 281.6 sec); assay type: functional
Rattus norvegicus [4] = test: Antidepressant activity in Wistar rat assessed as immobility time at 10.0 mg/kg, po measured for 5 mins by forced swim test (reference value: 241.9 to 281.6 sec); assay type: functional
[5] = Metabolic stability in human liver microsomes assessed as compound metabolism incubated for 30 mins in presence of NADPH by LC-MS/MS analysis; assay type: ADME, Microsome; settings: read-out: Drug metabolism
[6] = Metabolic stability in rat liver microsomes assessed as compound metabolism incubated for 30 mins in presence of NADPH by LC-MS/MS analysis; assay type: ADME, Microsome; settings: read-out: Drug metabolism
Cytochrome P450 2D6 = Cytochrome P450 2D6 (Homo sapiens, UniProt P10635); test: Inhibition of CYP2D6 in human liver microsomes using dextromethorphan as substrate incubated for 12 min in presence of NADPH by LC-MS/MS analysis; assay type: ADME
Cytochrome P450 3A4 = Cytochrome P450 3A4 (Homo sapiens, UniProt P08684); test: Inhibition of CYP3A4 in human liver microsomes using midazolam as substrate incubated for 2 min in presence of NADPH by LC-MS/MS analysis; assay type: ADME
[7] = Oral bioavailability in Wistar rat at 10 ml/kg measured upto 24 hrs by LC-MS/MS analysis; assay type: ADME, organism-based; settings: in vivo
[8] = Cmax in Wistar rat at 10 ml/kg, po or 2 ml/kg, iv measured upto 24 hrs by LC-MS/MS analysis; assay type: ADME, organism-based; settings: in vivo
[9] = AUC in Wistar rat at 10 ml/kg, po or 2 ml/kg, iv measured upto 24 hrs by LC-MS/MS analysis; assay type: ADME, organism-based; settings: in vivo
[10] = Half life in Wistar rat at 10 ml/kg, po or 2 ml/kg, iv measured upto 24 hrs by LC-MS/MS analysis; assay type: ADME, organism-based; settings: in vivo
[11] = Ratio of drug level in brain to plasma in Wistar rat at 10 ml/kg, po or 2 ml/kg, iv measured upto 24 hrs by LC-MS/MS analysis; assay type: ADME, organism-based; settings: brain and plasma, read-out: BPR

Chain of Neuronal acetylcholine receptor; alpha3/beta4 (P30926 whole entry): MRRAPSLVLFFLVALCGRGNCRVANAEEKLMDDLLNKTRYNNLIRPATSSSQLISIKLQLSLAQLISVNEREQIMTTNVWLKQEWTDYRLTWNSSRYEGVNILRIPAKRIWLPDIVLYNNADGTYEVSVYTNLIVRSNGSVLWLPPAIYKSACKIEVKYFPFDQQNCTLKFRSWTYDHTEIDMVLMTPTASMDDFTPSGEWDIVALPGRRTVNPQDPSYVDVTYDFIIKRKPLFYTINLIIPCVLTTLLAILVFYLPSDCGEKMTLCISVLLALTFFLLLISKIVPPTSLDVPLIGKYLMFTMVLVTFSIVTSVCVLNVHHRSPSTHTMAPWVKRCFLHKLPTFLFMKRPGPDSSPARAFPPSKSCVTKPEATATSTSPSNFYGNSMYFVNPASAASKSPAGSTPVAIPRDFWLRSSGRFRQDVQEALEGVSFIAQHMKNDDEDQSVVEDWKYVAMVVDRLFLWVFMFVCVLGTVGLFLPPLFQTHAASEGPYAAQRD
Chain of Neuronal acetylcholine receptor; alpha3/beta4 (P32297 whole entry): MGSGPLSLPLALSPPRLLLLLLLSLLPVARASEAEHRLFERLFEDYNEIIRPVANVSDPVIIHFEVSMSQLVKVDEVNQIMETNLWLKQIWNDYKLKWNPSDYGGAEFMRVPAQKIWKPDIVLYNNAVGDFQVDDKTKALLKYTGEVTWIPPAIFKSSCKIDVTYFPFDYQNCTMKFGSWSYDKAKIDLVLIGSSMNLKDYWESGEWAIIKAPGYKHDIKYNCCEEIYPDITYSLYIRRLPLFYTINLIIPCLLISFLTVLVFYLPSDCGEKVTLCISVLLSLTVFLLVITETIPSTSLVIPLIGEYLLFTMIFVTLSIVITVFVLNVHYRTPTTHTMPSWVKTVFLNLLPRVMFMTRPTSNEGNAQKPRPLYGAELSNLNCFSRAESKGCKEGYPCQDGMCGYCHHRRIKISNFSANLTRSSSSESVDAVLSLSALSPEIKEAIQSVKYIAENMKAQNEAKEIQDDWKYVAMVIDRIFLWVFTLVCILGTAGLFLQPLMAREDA
Chain of Cytochrome P450 3A4 (P08684 whole entry): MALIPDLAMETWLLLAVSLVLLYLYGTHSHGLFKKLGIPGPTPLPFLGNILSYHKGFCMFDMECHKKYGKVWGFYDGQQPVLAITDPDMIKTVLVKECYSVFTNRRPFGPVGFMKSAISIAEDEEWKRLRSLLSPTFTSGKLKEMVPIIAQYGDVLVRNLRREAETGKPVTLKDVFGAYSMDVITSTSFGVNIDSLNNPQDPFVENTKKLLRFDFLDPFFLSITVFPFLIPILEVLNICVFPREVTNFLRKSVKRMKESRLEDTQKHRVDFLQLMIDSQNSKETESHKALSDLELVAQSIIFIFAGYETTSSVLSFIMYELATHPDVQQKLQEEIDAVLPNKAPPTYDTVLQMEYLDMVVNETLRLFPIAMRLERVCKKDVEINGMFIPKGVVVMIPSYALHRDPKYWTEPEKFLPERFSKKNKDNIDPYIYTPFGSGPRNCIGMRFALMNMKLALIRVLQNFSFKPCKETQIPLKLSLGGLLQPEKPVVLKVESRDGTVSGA
Chain of Neuronal acetylcholine receptor; alpha4/beta2 (P17787 whole entry): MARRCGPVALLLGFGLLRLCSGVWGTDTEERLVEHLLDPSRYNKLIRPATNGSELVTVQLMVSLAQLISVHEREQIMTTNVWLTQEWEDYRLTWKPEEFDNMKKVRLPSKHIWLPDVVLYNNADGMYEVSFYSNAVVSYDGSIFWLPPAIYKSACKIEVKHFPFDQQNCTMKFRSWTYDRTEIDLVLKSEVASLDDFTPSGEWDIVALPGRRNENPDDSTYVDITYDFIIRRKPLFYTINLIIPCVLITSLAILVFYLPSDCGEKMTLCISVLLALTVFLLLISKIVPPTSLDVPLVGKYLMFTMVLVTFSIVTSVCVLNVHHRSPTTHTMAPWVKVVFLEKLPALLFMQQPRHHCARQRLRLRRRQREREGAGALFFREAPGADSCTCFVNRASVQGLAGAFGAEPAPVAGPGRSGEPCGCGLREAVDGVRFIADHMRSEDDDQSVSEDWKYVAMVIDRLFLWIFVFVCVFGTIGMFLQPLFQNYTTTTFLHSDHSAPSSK
Chain of Neuronal acetylcholine receptor; alpha4/beta2 (P43681 whole entry): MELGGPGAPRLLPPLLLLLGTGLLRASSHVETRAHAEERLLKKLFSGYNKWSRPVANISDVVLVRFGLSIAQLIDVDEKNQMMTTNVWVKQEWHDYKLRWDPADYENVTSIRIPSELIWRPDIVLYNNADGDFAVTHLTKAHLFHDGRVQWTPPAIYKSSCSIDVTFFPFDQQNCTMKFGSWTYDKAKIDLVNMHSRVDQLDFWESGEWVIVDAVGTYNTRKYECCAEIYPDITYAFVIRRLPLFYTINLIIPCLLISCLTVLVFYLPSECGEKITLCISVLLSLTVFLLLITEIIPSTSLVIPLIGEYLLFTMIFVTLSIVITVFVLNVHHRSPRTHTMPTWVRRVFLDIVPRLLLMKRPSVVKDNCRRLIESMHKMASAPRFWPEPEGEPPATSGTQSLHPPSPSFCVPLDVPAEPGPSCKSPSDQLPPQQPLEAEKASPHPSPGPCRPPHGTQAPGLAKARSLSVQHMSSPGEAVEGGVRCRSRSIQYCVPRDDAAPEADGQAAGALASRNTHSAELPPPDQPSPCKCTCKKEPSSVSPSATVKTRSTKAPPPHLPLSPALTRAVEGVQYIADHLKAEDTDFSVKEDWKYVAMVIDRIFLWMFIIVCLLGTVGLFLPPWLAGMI
Chain of Cytochrome P450 2D6 (P10635 whole entry): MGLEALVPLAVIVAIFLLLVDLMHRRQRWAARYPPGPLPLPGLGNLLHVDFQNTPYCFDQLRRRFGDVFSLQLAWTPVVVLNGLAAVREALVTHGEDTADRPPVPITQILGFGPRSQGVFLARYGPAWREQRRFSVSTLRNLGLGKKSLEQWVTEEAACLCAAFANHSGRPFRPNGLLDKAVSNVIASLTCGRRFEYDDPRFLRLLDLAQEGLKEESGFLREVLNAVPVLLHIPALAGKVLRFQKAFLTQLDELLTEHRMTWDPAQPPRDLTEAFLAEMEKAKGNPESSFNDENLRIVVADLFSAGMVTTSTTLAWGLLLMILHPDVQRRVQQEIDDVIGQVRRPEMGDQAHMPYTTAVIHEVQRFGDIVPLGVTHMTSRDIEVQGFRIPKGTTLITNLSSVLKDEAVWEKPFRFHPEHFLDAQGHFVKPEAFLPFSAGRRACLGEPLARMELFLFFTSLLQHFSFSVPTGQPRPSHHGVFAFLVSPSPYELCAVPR

C[C@@]12C[C@@H]1CC(COc1cccnc1Cl)N2 (some centres undefined)
Ki [1]: > 10000 nM

Clc1ccc(OC[C@@H]2C[C@H]3C[C@H]3N2)nn1
Ki [1]: 4740 nM

COc1ccc(OC[C@@H]2C[C@H]3C[C@H]3N2)cn1
Ki [1]: > 10000 nM

CN1[C@H](COc2cccnc2F)C[C@H]2C[C@H]21
Ki [1]: 31.9 nM

Fc1ncccc1OC[C@@H]1C[C@H]2C[C@H]2N1
Ki [1]: 17.4 nM

CN1[C@H](COc2cccnc2Cl)C[C@H]2C[C@H]21
Ki [1]: 28.1 nM

Cc1ccc(OC[C@@H]2C[C@H]3C[C@H]3N2C)cn1
Ki [1]: 20 nM

CN1[C@H](COc2cncc(Cl)c2)C[C@H]2C[C@H]21
Ki [1]: 0.37 nM

Cc1ccc(OC[C@@H]2C[C@@H]3C[C@@H]3N2)cn1
Ki [1]: 1.38 nM

C=Cc1nnc(-c2cncc(OC[C@@H]3C[C@H]4C[C@H]4N3)c2)o1
Ki [1]: 2660 nM

FC(F)(F)c1ccc(OC[C@@H]2C[C@H]3C[C@H]3N2)cn1
Ki [1]: 768 nM

c1cncc(OC[C@]23C[C@H]2CCN3)c1
Ki [1]: 242 nM

COc1ccc(OC[C@@H]2C[C@@H]3C[C@@H]3N2)cn1
Ki [1]: 4.7 nM

CC(=O)N1[C@H](COc2ccc(Cl)nc2)C[C@H]2C[C@H]21
Ki [1]: > 10000 nM

CN1[C@H](COc2ccc(Cl)nc2)C[C@H]2C[C@H]21
Ki [1]: 3.4 nM

c1cncc(N2CCC3(CCCN3)C2)c1 (centres undefined) [TC-2216]
Ki [1]: 18.6 nM | Ki [2]: > 10000 nM | Time (Rattus norvegicus [3]): 249.1 s | Time (Rattus norvegicus [4]): 183.9 s

Clc1cncc(OC[C@H]2NC[C@@H]3C[C@@H]32)c1
Ki [1]: 0.2 nM | Ki [2]: 8.2 nM | metabolised at 0.5 h [5]: 6.04% | metabolised at 0.5 h [6]: 12.1% | IC50 (Cytochrome P450 2D6): > 45000 nM | IC50 (Cytochrome P450 3A4): > 45000 nM

c1ccc2ncc(OC[C@@H]3C[C@H]4C[C@H]4N3)cc2c1
Ki [1]: 600 nM

Clc1cncc(OCC[C@@H]2C[C@H]3C[C@H]3N2)c1
Ki [1]: 395 nM

Clc1ccc(OCC[C@@H]2C[C@H]3C[C@H]3N2)cn1
Ki [1]: 327 nM

Clc1ccc(OC[C@H]2C[C@H]3C[C@H]3N2)cn1
Ki [1]: 329 nM | Ki [2]: 525 nM | metabolised at 0.5 h [5]: 18.3% | metabolised at 0.5 h [6]: 69.6% | IC50 (Cytochrome P450 2D6): 32100 nM | IC50 (Cytochrome P450 3A4): > 45000 nM

c1cc(OC[C@@H]2C[C@H]3C[C@H]3N2)ccn1
Ki [1]: > 10000 nM

Cc1ncccc1OC[C@@H]1C[C@H]2C[C@H]2N1.Cl
Ki [1]: > 10000 nM | Time (Rattus norvegicus [3]): 204.8 s | Time (Rattus norvegicus [4]): 198.8 s

Cl.Clc1cncc(OC[C@@H]2C[C@H]3C[C@H]3N2)c1
Ki [1]: 0.19 nM | Ki [2]: > 10000 nM | metabolised at 0.5 h [5]: 40.7% | metabolised at 0.5 h [6]: 40.4% | bioavailability [7]: 50% | Cmax [8]: 949 ng/mL | AUC at 24 h [9]: 1190 ng·h/mL | half-life [10]: 1.07 h | Kp at 24 h [11]: 3.79 | IC50 (Cytochrome P450 2D6): > 45000 nM | IC50 (Cytochrome P450 3A4): > 45000 nM | Time (Rattus norvegicus [3]): 249.9 s | Time (Rattus norvegicus [4]): 241.7 s

Cl.Clc1ccc(OC[C@@H]2CC[C@H]3C[C@H]3N2)cn1
Ki [1]: 20.5 nM | Ki [2]: > 10000 nM | metabolised at 0.5 h [5]: 98.9% | metabolised at 0.5 h [6]: 72.8% | bioavailability [7]: 48% | Cmax [8]: 3340 ng/mL | AUC at 24 h [9]: 4480 ng·h/mL | half-life [10]: 0.68 h | Kp at 24 h [11]: 0.16 | IC50 (Cytochrome P450 2D6): 79000 nM | IC50 (Cytochrome P450 3A4): > 45000 nM | Time (Rattus norvegicus [3]): 238.6 s | Time (Rattus norvegicus [4]): 264.9 s

c1cnc(OC[C@@H]2C[C@H]3C[C@H]3N2)cn1
Ki [1]: > 10000 nM

c1ccc(OC[C@@H]2C[C@H]3C[C@H]3N2)nc1
Ki [1]: > 10000 nM

Cl.c1cncc(OC[C@@H]2C[C@@H]3C[C@@H]3N2)c1
Ki [1]: 1340 nM | Ki [2]: 558 nM | metabolised at 0.5 h [5]: 2.6% | metabolised at 0.5 h [6]: 3.9% | bioavailability [7]: 87% | Cmax [8]: 1500 ng/mL | AUC at 24 h [9]: 2710 ng·h/mL | half-life [10]: 1.08 h | Kp at 24 h [11]: 3.07 | IC50 (Cytochrome P450 2D6): 30200 nM | IC50 (Cytochrome P450 3A4): 31900 nM

Cc1nnc(-c2cncc(OC[C@@H]3C[C@H]4C[C@H]4N3)c2)o1
Ki [1]: 407 nM

CN1[C@H](COc2ccc(F)nc2)C[C@H]2C[C@H]21
Ki [1]: 1.1 nM

c1cncc(OC[C@H]2NC[C@@H]3C[C@@H]32)c1
Ki [1]: 0.14 nM | Ki [2]: 26.4 nM | metabolised at 0.5 h [5]: 6.7% | metabolised at 0.5 h [6]: 6.2% | IC50 (Cytochrome P450 2D6): > 45000 nM | IC50 (Cytochrome P450 3A4): 21100 nM

C[C@@]12C[C@@H]1CC(COc1cncc(Cl)c1)N2 (some centres undefined)
Ki [1]: 577 nM

c1nnc(-c2cncc(OC[C@@H]3C[C@H]4C[C@H]4N3)c2)o1
Ki [1]: 131 nM

CN1[C@H](COc2cncc(Br)c2)C[C@H]2C[C@H]21
Ki [1]: 4.2 nM

Cl.Clc1ccc(OC[C@@H]2C[C@@H]3C[C@@H]3N2)cn1
Ki [1]: 6.4 nM | Ki [2]: 1020 nM | metabolised at 0.5 h [5]: 13.6% | metabolised at 0.5 h [6]: 36% | bioavailability [7]: 66% | Cmax [8]: 638 ng/mL | AUC at 24 h [9]: 1620 ng·h/mL | half-life [10]: 2.73 h | Kp at 24 h [11]: 2.14 | IC50 (Cytochrome P450 2D6): > 45000 nM | IC50 (Cytochrome P450 3A4): > 45000 nM

CN1[C@H](COc2cccnc2)C[C@H]2C[C@H]21
Ki [1]: 5.5 nM

C[C@@]12C[C@@H]1CC(COc1cccnc1)N2 (some centres undefined)
Ki [1]: 3.6 nM

Cc1ccc(OC[C@@H]2C[C@H]3C[C@H]3N2)cn1
Ki [1]: 26.2 nM

Clc1ncccc1OC[C@@H]1C[C@@H]2C[C@@H]2N1
Ki [1]: 1 nM

Cc1ncccc1OC[C@@H]1CCCN1 [POZANICLINE]
Ki [2]: > 10000 nM

Clc1cc(OC[C@@H]2C[C@H]3C[C@H]3N2)cnc1Cl
Ki [1]: 149 nM

C[C@@]12C[C@@H]1CC(COc1ccc(Cl)nc1)N2 (some centres undefined)
Ki [1]: 6880 nM

Brc1cncc(OC[C@@H]2C[C@H]3C[C@H]3N2)c1
Ki [1]: 6.4 nM

Clc1ccc(OC[C@H]2NC[C@@H]3C[C@@H]32)cn1
Ki [1]: 0.2 nM

Clc1ncccc1OC[C@@H]1CC[C@H]2C[C@H]2N1
Ki [1]: > 10000 nM

Cc1ncccc1OC[C@@H]1C[C@H]2C[C@H]2N1C
Ki [1]: 231 nM

Clc1cncc(OC[C@@H]2CC[C@H]3C[C@H]3N2)c1
Ki [1]: 31.3 nM

Clc1cc(OC[C@@H]2C[C@H]3C[C@H]3N2)c(Cl)nc1Cl
Ki [1]: 265 nM

Brc1cncc(OC[C@@H]2C[C@@H]3C[C@@H]3N2)c1
Ki [1]: 2.9 nM

Clc1ccc(OC[C@]23C[C@H]2CCN3)cn1
Ki [1]: 341 nM

Cl.c1cncc(OC[C@@H]2CC[C@H]3C[C@H]3N2)c1
Ki [1]: 11.4 nM | Ki [2]: 68.4 nM | metabolised at 0.5 h [5]: 53.1% | metabolised at 0.5 h [6]: 17% | Cmax [8]: 665 ng/mL | half-life [10]: 0.01 h | Kp at 24 h [11]: 0.32 | IC50 (Cytochrome P450 2D6): > 45000 nM | IC50 (Cytochrome P450 3A4): > 45000 nM

Clc1nccnc1OC[C@@H]1C[C@H]2C[C@H]2N1
Ki [1]: 5110 nM

Clc1cncc(OC[C@@H]2C[C@@H]3C[C@@H]3N2)c1
Ki [1]: 327 nM

OCCCCC#Cc1cncc(OC[C@@H]2C[C@H]3C[C@H]3N2)c1
Ki [1]: 2.7 nM

Fc1ccc(OC[C@@H]2C[C@@H]3C[C@@H]3N2)cn1
Ki [1]: 1.2 nM

Brc1ccc(OC[C@@H]2C[C@H]3C[C@H]3N2)cn1
Ki [1]: 46.5 nM

Clc1cncc(OC[C@]23C[C@H]2CCN3)c1
Ki [1]: 827 nM
